Tested on: Staphylococcus aureus organisms
Assay: In vitro tests of susceptibility to NO
Type: cell-based

Compound: [N]=O [NO, Nitric oxide]
- susceptibility to NO: susceptible
